Results as given in publication PMC9516332 (Frontiers in Oncology, 2022).
Where two headings read alike, the source gives them in different places.

Tests used:
Assay in all cases: Kinase panel profiling at 1 µmol/L (MSA or IMAP), percentage inhibition
Assay type in all cases: biochemical
[1] = target: T1, panel of 255 wild-type kinases (Homo sapiens, UniProt O00418); conditions: read-out: %-inhibition at 1 µmol/L, EEF2K
T1 sequence (O00418 1-725): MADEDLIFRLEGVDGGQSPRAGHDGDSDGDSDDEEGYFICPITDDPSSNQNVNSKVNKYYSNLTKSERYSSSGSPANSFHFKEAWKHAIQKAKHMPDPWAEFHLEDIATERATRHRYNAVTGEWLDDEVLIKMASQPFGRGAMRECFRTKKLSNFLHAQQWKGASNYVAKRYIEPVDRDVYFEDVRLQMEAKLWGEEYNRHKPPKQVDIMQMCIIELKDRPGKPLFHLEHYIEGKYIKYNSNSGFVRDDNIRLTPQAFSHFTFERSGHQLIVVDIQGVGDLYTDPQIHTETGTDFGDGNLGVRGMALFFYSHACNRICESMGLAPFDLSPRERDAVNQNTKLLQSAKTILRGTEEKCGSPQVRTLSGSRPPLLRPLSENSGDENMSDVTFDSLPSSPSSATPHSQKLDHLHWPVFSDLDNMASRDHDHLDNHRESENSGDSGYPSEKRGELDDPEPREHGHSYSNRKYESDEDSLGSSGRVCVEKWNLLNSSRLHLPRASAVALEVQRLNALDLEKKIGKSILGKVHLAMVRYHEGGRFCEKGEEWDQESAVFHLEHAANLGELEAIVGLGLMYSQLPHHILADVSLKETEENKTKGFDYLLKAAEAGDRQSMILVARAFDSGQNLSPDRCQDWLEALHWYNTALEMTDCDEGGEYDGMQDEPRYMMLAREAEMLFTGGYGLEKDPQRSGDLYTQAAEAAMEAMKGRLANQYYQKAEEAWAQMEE

[2] = target: T2, panel of 255 wild-type kinases (Homo sapiens, UniProt O15146); conditions: read-out: %-inhibition, MUSK
T2 sequence (O15146 24-869): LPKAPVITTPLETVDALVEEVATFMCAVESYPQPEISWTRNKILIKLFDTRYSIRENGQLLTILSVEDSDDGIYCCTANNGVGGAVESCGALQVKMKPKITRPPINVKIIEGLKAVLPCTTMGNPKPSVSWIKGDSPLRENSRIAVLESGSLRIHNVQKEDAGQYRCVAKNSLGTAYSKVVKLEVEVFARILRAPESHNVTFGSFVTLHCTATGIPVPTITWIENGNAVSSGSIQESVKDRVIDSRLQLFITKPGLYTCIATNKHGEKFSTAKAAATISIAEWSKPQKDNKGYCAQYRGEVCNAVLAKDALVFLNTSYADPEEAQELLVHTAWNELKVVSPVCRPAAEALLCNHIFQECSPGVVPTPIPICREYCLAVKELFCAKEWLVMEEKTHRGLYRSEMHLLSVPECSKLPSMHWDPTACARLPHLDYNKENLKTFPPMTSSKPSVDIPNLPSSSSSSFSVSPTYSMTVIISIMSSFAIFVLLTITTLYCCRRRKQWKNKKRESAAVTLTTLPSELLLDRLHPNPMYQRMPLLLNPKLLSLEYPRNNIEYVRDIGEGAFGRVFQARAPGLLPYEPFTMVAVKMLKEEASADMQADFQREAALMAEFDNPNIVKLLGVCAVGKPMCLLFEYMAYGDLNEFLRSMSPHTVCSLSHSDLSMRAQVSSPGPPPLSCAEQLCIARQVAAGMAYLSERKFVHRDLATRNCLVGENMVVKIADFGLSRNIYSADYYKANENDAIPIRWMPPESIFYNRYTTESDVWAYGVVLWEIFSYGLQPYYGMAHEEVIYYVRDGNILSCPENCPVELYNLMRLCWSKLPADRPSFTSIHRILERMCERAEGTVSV

[3] = target: panel of 255 wild-type kinases (Homo sapiens, UniProt O60674); conditions: read-out: %-inhibition at 1 µmol/L, JAK2
[4] = target: panel of 255 wild-type kinases (Homo sapiens, UniProt P49759); conditions: read-out: %-inhibition at 1 µmol/L, CLK1
[5] = target: T3, panel of 255 wild-type kinases (Homo sapiens, UniProt Q8TF76); conditions: read-out: %-inhibition at 1 µmol/L, Haspin
T3 sequence (Q8TF76 1-798): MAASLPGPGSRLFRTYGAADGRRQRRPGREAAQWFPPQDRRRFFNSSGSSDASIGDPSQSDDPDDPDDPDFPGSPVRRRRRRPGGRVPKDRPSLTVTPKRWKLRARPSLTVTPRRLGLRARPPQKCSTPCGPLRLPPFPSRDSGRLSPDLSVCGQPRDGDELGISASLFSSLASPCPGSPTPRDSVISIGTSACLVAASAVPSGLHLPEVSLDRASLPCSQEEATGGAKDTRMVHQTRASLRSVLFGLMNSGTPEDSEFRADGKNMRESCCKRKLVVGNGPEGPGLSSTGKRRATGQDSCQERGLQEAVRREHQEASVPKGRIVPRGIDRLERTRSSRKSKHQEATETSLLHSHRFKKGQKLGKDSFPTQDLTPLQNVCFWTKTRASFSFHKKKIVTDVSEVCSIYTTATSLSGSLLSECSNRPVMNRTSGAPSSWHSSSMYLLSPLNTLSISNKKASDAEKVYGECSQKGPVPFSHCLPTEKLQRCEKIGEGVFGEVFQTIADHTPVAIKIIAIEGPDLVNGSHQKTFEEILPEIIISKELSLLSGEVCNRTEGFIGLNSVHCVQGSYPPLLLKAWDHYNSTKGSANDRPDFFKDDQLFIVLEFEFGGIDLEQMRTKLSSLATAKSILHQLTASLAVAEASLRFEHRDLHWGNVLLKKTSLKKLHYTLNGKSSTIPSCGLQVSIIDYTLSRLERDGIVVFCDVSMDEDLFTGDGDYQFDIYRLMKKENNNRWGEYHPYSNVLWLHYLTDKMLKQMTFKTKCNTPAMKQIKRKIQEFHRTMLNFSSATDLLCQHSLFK

[6] = target: T4, panel of 255 wild-type kinases (Homo sapiens, UniProt Q96PN8); conditions: read-out: %-inhibition at 1 µmol/L, TSSK3
T4 sequence (Q96PN8 1-268): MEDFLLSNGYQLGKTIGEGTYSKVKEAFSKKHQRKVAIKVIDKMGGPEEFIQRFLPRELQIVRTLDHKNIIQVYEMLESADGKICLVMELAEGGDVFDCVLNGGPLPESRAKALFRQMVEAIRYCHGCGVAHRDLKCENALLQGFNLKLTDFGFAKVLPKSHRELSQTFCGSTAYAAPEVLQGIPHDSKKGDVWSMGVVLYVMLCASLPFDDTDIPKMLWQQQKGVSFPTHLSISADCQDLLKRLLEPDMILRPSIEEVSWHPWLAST

[7] = kinase EEF2K, 1 µmol/L single concentration
[8] = MUSK, 1 µmol/L single concentration
[9] = kinase JAK2, 1 µmol/L single concentration
[10] = kinase CLK1, 1 µmol/L single concentration
[11] = kinase Haspin, 1 µmol/L single concentration
[12] = kinase TSSK3, 1 µmol/L single concentration

Row | Compound | inhibition at 1 µM [1, 7] | inhibition at 1 µM [2, 8] | inhibition at 1 µM [3, 9] | inhibition at 1 µM [4, 10] | inhibition at 1 µM [5, 11] | inhibition at 1 µM [6, 12] | inhibition at 1 µM [1] | inhibition at 1 µM [2] | inhibition at 1 µM [3] | inhibition at 1 µM [4] | inhibition at 1 µM [5] | inhibition at 1 µM [6]
1 | Cc1nc(NC(=O)N2CCC[C@H]2C(N)=O)sc1-c1ccnc(C(C)(C)C(F)(F)F)c1 [alpelisib] | 2% | -8% | 1.85% | 59% | -4% | 0.673% | – | – | – | – | – | –
2 | Cn1cc(-c2cc3c(N4CCN(c5ncc([C@@](C)(N)c6ccc(F)cc6)cn5)CC4)ncnn3c2)cn1 [avapritinib] | -1.21% | 63% | 52% | – | 59% | -4% | – | – | – | – | – | –
3 | Cn1cnc2c(F)c(Nc3ccc(Br)cc3F)c(C(=O)NOCCO)cc21 [binimetinib] | -6% | -4.46% | -0.409% | -1.7% | -15% | 2.62% | – | – | – | – | – | –
4 | CNC(=O)c1ccc(-c2cnc3ncc(Cc4ccc5ncccc5c4)n3n2)cc1F [capmatinib] | – | – | – | – | – | – | -0.629% | 1.33% | 1.58% | 8% | 37% | -7%
5 | COc1cc2ncnc(Nc3ccc(F)c(Cl)c3)c2cc1NC(=O)/C=C/CN1CCCCC1 [dacomitinib] | 0% | 22% | 0.856% | 19% | 13% | 3% | – | – | – | – | – | –
6 | C[C@H](Nc1ncnc2nc[nH]c12)c1cc2cccc(Cl)c2c(=O)n1-c1ccccc1 [duvelisib] | 0.762% | -4.45% | 3.29% | -0.419% | 2% | 3% | – | – | – | – | – | –
7 | COC(=O)N[C@@H](C)CNc1nccc(-c2cn(C(C)C)nc2-c2cc(Cl)cc(NS(C)(=O)=O)c2F)n1 [encorafenib] | 1% | -1.72% | 2.62% | 3% | -5% | 4% | – | – | – | – | – | –
8 | CN1CCN(c2ccc(C(=O)Nc3n[nH]c4ccc(Cc5cc(F)cc(F)c5)cc34)c(NC3CCOCC3)c2)CC1 [entrectinib] | 3.25% | 100% | 100% | 60% | -2.24% | 5.68% | – | – | – | – | – | –
9 | CCc1nc(C(N)=O)c(Nc2ccc(N3CCC(N4CCN(C)CC4)CC3)c(OC)c2)nc1NC1CCOCC1 [gilteritinib] | -2.72% | 99% | 95% | 96% | 35% | 11% | – | – | – | – | – | –
10 | CCN1CCN(c2ccc(Nc3cc(N(C)C(=O)Nc4c(Cl)c(OC)cc(OC)c4Cl)ncn3)cc2)CC1 [infigratinib] | 2.54% | 24% | 2.11% | 10% | -1.4% | -1.43% | – | – | – | – | – | –
11 | O=C(Nc1cnn2ccc(N3CCC[C@@H]3c3cc(F)ccc3F)nc12)N1CC[C@H](O)C1 [larotrectinib] | -2% | 32% | 46% | 5.31% | -4.46% | 0.55% | – | – | – | – | – | –
12 | C[C@H]1Oc2cc(cnc2N)-c2c(nn(C)c2C#N)CN(C)C(=O)c2ccc(F)cc21 [lorlatinib] | -1.73% | 47% | 69% | -2.47% | 0.865% | 3.55% | – | – | – | – | – | –
13 | CCN1C(=O)N(c2c(F)c(OC)cc(OC)c2F)Cc2cnc3[nH]c(CN4CCOCC4)cc3c21 [pemigatinib] | -3.26% | 2.72% | -2.85% | 5% | -3.7% | -0.468% | – | – | – | – | – | –
14 | FC(F)(F)c1ccc(CNc2ccc(Cc3c[nH]c4ncc(Cl)cc34)cn2)cn1 [pexidartinib] | -2.25% | 33% | 35% | 13% | 6.52% | 10% | – | – | – | – | – | –
15 | CO[C@]1(C(=O)N[C@@H](C)c2ccc(-n3cc(F)cn3)nc2)CC[C@H](c2nc(C)cc(Nc3cc(C)[nH]n3)n2)CC1 [pralsetinib] | 1.23% | 73% | 98% | 32% | 0.149% | -5% | – | – | – | – | – | –
16 | CCn1c(=O)c(-c2cc(NC(=O)Nc3ccccc3)c(F)cc2Br)cc2cnc(NC)cc21 [ripretinib] | -2% | 11% | 63% | 1% | 1.87% | -0.0717% | – | – | – | – | – | –
17 | COc1ccc(CN2C3CC2CN(c2ccc(-c4cc(OCC(C)(C)O)cn5ncc(C#N)c45)cn2)C3)cn1 [selpercatinib] | -1.54% | 10% | 27% | 19% | -4.63% | -4% | – | – | – | – | – | –
